Laboratory results taken from PMC5642494 (Oncotarget, 2017).

Assays:
Assay type in all cases: cell-based, human
[1] = tested on: MCF7, MDA-MB-361 and EFM-19 cells; test: Cell morphology by bright field microscopy; details: 0.5 µM, 3 DT
Procedure: (A–D) Cells were treated with 0.2% DMSO (A MDA-
3 DT and side scatter (SSC) analysis was carried out using flow cytometry and analyzed with FlowJo X software.

[2] = tested on: HR+ and HR- breast cancer cell lines; test: Proliferation after washouts (EdU Click-iT) in breast cancer lines
Procedure: Images were SA-β-galactosidase immunocytochemical labeling taken by fluorescent microscopy using a Leica DMiL. […] SA-β-gal Cell samples were lysed after treatment with expression was determined using the Senescence Cells 100 μL lysis buffer and transferred to a 96-well plate. Histochemical Staining Kit (Sigma, CS0030) following 30 μL of each sample were transferred into deep well the vendor 's manual. Images were taken at 100x by bright plates using TECAN-EVO Workstation. Samples were field microscopy (Leica DMiL). treated for derivatization of the metabolites of interest and internal standards. For this, 50 μL of derivatization reagent Proliferation studies after washouts (EdU Click- and 80 μL of internal standard (IS, SupplementaryTable iT®) 1), were added with multidrop, plates were vortexed for 5 mins and let sit for one hour at 4 °C. The IS used were the Cells were plated onto poly-D-lysine D or 13C-labeled commercial analogues of nine of the ten coated 96-well plates at a density of 2,000-6,000 metabolites, prepared at 25 μM in water (Supplementary viable cells per well, and treated with abemaciblib or Table 1). The derivatization reagents (from Sigma), […] washout schedule shown on Supplementary Figure 1A. […] EdU Samples were analyzed by LC-MS/MS under the detection was performed using the Click-iT High Content conditions described below. […] Cell images were captured using a Cellomics Arrayscan VTI and analyzed Analysis of the derivatized-extracted samples with the Target Activation bio-application V.3 reading in 4 was carried out with an Agilent 6460 Triple Quadrupole channels at a magnification of 10X. […] The software relative levels and sub-cellular localization of EdU were for data collection and treatment was Agilent Masshunter determined through the respective intensities and locations Workstation. Mobile phases for chromatography were: of Alexa-488 fluorescence. mobile phase A: formic acid (5 mM) and ammonium formate (10 mM) in water; mobile phase B: acetonitrile. […]

pCTD_s2 or MCL1 = test: Immunoblotting of CDK9-dependent biomarkers in ZR-75-1, T-47D and MCF7 cells; details: MCF7, T-47D, ZR-75-1 cells; 24 hours; highest concentration (20 µM)
Procedure: Protein lysates were prepared from the cells and analyzed for the expression of various biomarkers by immunoblotting. The biomarkers included phosphor-Rb at serines 807/811,phosphorylation of serine 2 on the C-terminal repeat domain on RNA polymerase II (pCTD) and MCL1. Images of Western blots were cropped to denote the relevant band(s) for clarity. […] Ki-67 positive events were obtained by gating versus background signal.

Which cell morphology [1] does the source give for CCN1CCN(Cc2ccc(Nc3ncc(F)c(-c4cc(F)c5nc(C)n(C(C)C)c5c4)n3)nc2)CC1 [abemaciclib, Abemaciclib] here?
The cell morphology was “larger and flatter compared to vehicle-treated cells”.

What about the “DNA synthesis / proliferation as measured by EdU incorporation” value ([2]; HR+ versus HR- breast cancer cell lines, exposure 2 hr, 24 hr or 72 hrs followed by washout) of the same compound?
Its value is “preferentially reduced in HR+ compared to HR- cell lines”.

And the “sensitivity of HR- cell lines with RB1 mutation or loss (EdU incorporation)” value ([2]; MDA-MB-468, BT549, BT20, HCC1937, HCC70)?
The value was “insensitive”.

And the “levels of pCTD_s2 or MCL1” value (pCTD_s2 or MCL1)?
Its value is “no changes were observed”.
